Patent publication US3978055A, “Arylamino pyrimidinic derivatives” (priority 1973, dated 1976)

Key:
[1] = tested on: isolated heart of guinea-pig; test: Augmentation of flow of coronary vessels of isolated heart (vasodilatatory); details: Cavia porcellus, read-out: Percentage augmentation of flow of isolated heart of guinea-pig
Protocol: The derivatives of formula I are capable of augmenting the flow of the coronary vessels of this isolated heart of a guinea - pig, when said derivatives are added in the perfusion liquid of said organ.
The percentage augmentation of the flow of the isolated heart of the guinea - pig by adding different derivatives of formula I to the perfusion liquid are given by way of example in the following Table V.

[2] = tested on: arterial pressure of anaesthetised rat; test: Lowering of arterial pressure of anaesthetised rat (hypotensive properties); assay type: in vivo; details: 2 mg/kg/i.v.
Text: Administered by intraveinous means to an anaesthetised rat, the derivatives of formula I provoke a lowering of the arterial pressure.
By way of example, the following Table VIII mentions the results obtained by administration of different derivatives of formula I.

[3] = tested on: painful stretchings caused by phenylbenzoquinone; test: Analgesic test with phenylbenzoquinone (painful stretchings); assay type: in vivo; details: Mus musculus, po; for inhibition in vivo at 100 mg/kg: read-out: Percentage of diminution of the number of painful stretchings; for ED50: read-out: 105 DE (DE 50)
[4] = Lethal doses / percentage mortality; assay type: in vivo; details: in vivo, mouse; for LD50: po, Table IX, read-out: DE 50 (second column; DL 50) (converted)
Text: (§1) As a result of a comparison between the pharmacologically active doses mentioned above, and the lethal doses listed in the following table XIV, the difference between the doses is sufficiently great to permit the utilisation of the derivatives of formula I in therapeutics.

Shay ulcers = test: Gastric ulcers provoked by tying of the pylorus (Shay ulcers); assay type: in vivo; details: intraduodenal; rat, 50mg/kg/i.d.; read-out: Percentage reduction of shay ulcers
Protocol: The derivatives of formula I, administered by oral means, reduce the extent of gastric ulcers provoked in a rat by tying of the pylorus (Shay ulcers)
Table IV indicated, by way of example, the results obtained by the administration of 50mg/kg/i.d. of different derivatives of formula I.

[5] = tested on: bronchoconstriction provoked by acetylcholine; test: Bronchoconstriction provoked by intravenous acetylcholine, Konzett method; assay type: in vivo; details: guinea-pig, intraperitoneal injection of 100mg/kg
Protocol: Injected by intraduodenal means, the derivatives of formula I are capable of opposing the bronchoconstriction provoked in the guinea - pig by the intraveinous injection of acetylcholine and evaluated by the Konzett method.
By way of example, the following Table VI lists the percentage inhibition of the bronchoconstriction following the intraperitoneal injection of 100mg/kg of different derivatives of formula I.

[6] = tested on: local oedema caused by sub-plantar injection of carraghenine; test: Sub-plantar oedema caused by carraghenine (antiinflammatory); assay type: in vivo, rat; details: rat; for inhibition in vivo at 100 mg/kg: 100 mg/kg/PO, read-out: Percentage reduction of subplantar oedema
Text: These properties are shown by a diminution of the local oedema caused by the sub-plantar injection of a phlogogenic agent, such as carraghenine, in the rat following the oral administration of derivatives of formula I.

[7] = tested on: number of explorations in the escape enclosure; test: Number of explorations in the escape enclosure (sedative properties); assay type: in vivo, mouse; details: po; mouse, escape enclosure, 100mg/kg/p.o.; read-out: Percentage diminution of number of explorations
[8] = tested on: arterial pressure of an anaesthetised rat; test: Increase in arterial pressure of anaesthetised rat (hypertensive properties); assay type: in vivo; details: 2 mg/kg/i.v.
Protocol: Administered by intraveinous means, the derivatives of formula I provoke an increase in the arterial pressure of an anaosthetised rat.
By way of example, the results obtained by the administration of 2 mg/kg/i.v. of different derivatives of formula I are listed in the following Table III.

volume of urine emitted = test: Augmentation of urinary elimination (diuretic properties); assay type: in vivo; details: po; mouse, 25mg/kg/p.o., 6 hours; read-out: Percentage augmentation of urinary elimination
Protocol: The derivatives of formula I, administered by oral means to the mouse, simultaneously with a volume of 1ml of an isotonic solution of sodium chloride per 25g of the corporeal weight of the mouse, are capable of provoking an augmentation of the volume of urine emitted by reference to control animals, the volume being measured for 6 hours following administration.
The following Table VII indicates, by way of example the percentage augmentation of urinary elimination resulting from the administration of 25mg/kg/p.o. of different derivatives of formula I.

[9] = tested on: isolated heart of the guinea-pig; test: Force of contractions on isolated heart (positive inotrope action)
Protocol: Additionally, the derivative of Code No. 730 712 added to the conserving medium in a concentration of 1 μg/ml, permit an augmentation of 140% in the force of contractions on the isolated heart of the guinea- pig.

[10] = tested on: analgesic action of dextromoramide in the Eddy test; test: Eddy test (potentialisation of dextromoramide analgesia); assay type: in vivo, mouse; details: Mus musculus, po, read-out: 105 DE (DE 50)
[11] = tested on: crying and jumping in the Randall and Selitto test; test: Randall and Selitto test; assay type: in vivo, rat; details: Randall and Selitto test
[12] = tested on: painful stretchings caused by bradykinine; test: Analgesic test with bradykinine (painful stretchings); assay type: in vivo, mouse
[13] = tested on: painful stretchings caused by acetic acid; test: Analgesic test with acetic acid (painful stretchings); assay type: in vivo, mouse; details: po; test with acetic acid, mouse; read-out: 105 DE (DE 50)
[14] = tested on: pain threshold in the dentary pulp stimulation test; test: Dentary pulp stimulation test; assay type: in vivo; details: rabbit
Text: Moreover, the derivatives of formula I, administered rectally to a rabbit, enabled the pain threshold to be raised in the dentary pulp stimulation test.
As an example, the following table XI gives the results of a comparative study between the activity of derivative code number 730 229 and that of glaphenine, the activities being estimated by the dentary stimulation test

mouse = test: Lethal doses / percentage mortality; assay type: in vivo; details: Table IX
Text: as §1

SMILES: Cc1cc(Nc2ccc(OCCN(C)C)cc2)nc(-c2cccc(C(F)(F)F)c2)n1 [730 241]
- activation at 0.5 µg/mL ([1]; 0.5 μg/ml): 77%
- Percentage reduction of arterial pressure of anaesthetised rat [2]: 24%
- Duration of effect ([2]; hypotensive effect): 30 mn
- inhibition in vivo at 100 mg/kg [3]: 67%
- mortality ([4]; 2000 mg/kg, 2 000 mg/kg/PO): 0%

SMILES: Cc1cc(Nc2ccc(C(=O)N3CCCCC3)cc2)nc(-c2ccc(Cl)cc2)n1 [72 276]
- inhibition in vivo at 50 mg/kg (Shay ulcers): 40%
- Percentage inhibition of bronchoconstriction [5]: 50%
- mortality ([4]; 2000 mg/kg, 2 000 mg/kg/PO): 0%

SMILES: Cc1cc(Nc2ccc(C(=O)N3CCCC3)cc2)nc(-c2ccc(Cl)cc2)n1 [72 255]
- inhibition in vivo at 50 mg/kg (Shay ulcers): 35%
- activation at 1 µg/mL ([1]; 1 μg/ml): 45%
- Percentage inhibition of bronchoconstriction [5]: 50%
- inhibition in vivo at 100 mg/kg [6]: 60%
- mortality ([4]; 2000 mg/kg, 2 000 mg/kg/PO): 0%

SMILES: Cc1cc(Nc2ccc(OCCN3CCOCC3)cc2)nc(-c2cccc(C(F)(F)F)c2)n1 [730 712]
- inhibition in vivo at 100 mg/kg [7]: 32%
- Percentage augmentation of arterial pressure [8]: 23%
- change in vivo at 25 mg/kg (volume of urine emitted): 90%
- activation at 1 µg/mL ([9]; Cavia porcellus, 1 μg/ml, read-out: augmentation in the force of contractions): 140%
- inhibition in vivo at 100 mg/kg [3]: 60%
- mortality ([4]; 2000 mg/kg, 2 000 mg/kg/PO): 0%

SMILES: Cc1cc(Nc2ccc(OCCN(C)C)cc2)nc(-c2ccc(Cl)cc2)n1 [730 225]
- inhibition in vivo at 50 mg/kg (Shay ulcers): 53%
- ED50 [3]: 42 mg/kg
- ED50 [10]: 80 mg/kg
- Percentage of diminution of the number of painful stretchings ([11]; 100 mg/kg/PO): 50%
- mortality ([4]; 2000 mg/kg, 2 000 mg/kg/PO): ~20%
- LD50 [4]: > 2000 mg/kg

SMILES: Cc1cc(Nc2ccccc2C(=O)OCC(O)CO)nc(-c2cccc(F)c2)n1 (centres unmarked) [72 826]
- Percentage inhibition of bronchoconstriction [5]: 100%
- change in vivo at 25 mg/kg (volume of urine emitted): 80%
- inhibition in vivo at 100 mg/kg [6]: 60%
- mortality ([4]; 2000 mg/kg, 2 000 mg/kg/PO): 0%

SMILES: O=C(OCC(O)CO)c1ccccc1Nc1ccnc2cc(Cl)ccc12 (centres unmarked) [glaphenine, N-(7-chloro-4-quinolyl) anthranilic acid 2,3-dihydroxypropylester]
- ED50 [3]: 60 mg/kg
- ED50 ([12]; Mus musculus, po, read-out: 105 DE (DE 50)): 48 mg/kg
- ED50 [13]: 80 mg/kg
- ED50 ([11]; po, rat, read-out: 105 DE (DE 50)): 65 mg/kg
- Duration of action ([14]; 50 mg/kg rectally): 1 h
- Number of rabbits whose pain threshold is increased by 0,5 V ([14]; 50 mg/kg rectally): 4/10
- Duration of action ([14]; 100 mg/kg rectally): 1,5 hours
- Number of rabbits whose pain threshold is increased by 0,5 V ([14]; 100 mg/kg rectally): 6/10
- Peak action ([14]; 100 mg/kg rectally): 45 mn
- Duration of action ([14]; 200 mg/kg rectally): 2 h
- Number of rabbits whose pain threshold is increased by 0,5 V ([14]; 200 mg/kg rectally): 8/10
- ED50 ([6]; po, antiinflammatory activity, read-out: DE 50 (the source's name)): 9 mg/kg
- LD50 [4]: 1900 mg/kg
- DE 50 (second column; DL 50) (mouse): 1 900 mg/kg/PO

SMILES: Cc1cc(Nc2ccc(OCCN3CCCC3)cc2)nc(-c2ccccc2)n1 [730 218]
- positive inotrope action ([9]; 0.5 μg/ml): positive inotrope action
- ED50 [3]: 37 mg/kg
- Percentage of diminution of the number of painful stretchings ([12]; test with bradykinine, 100 mg/kg/PO): 40%
- ED50 [10]: 50 mg/kg
- mortality ([4]; 1 2500 mg/kg/PO): ~50%
- LD50 [4]: 1500 mg/kg
- DE 50 (second column; DL 50) (mouse): 1 500 mg/kg/PO
